Results published in ChEMBL document CHEMBL4811238, “Identification of N-phenyl-2-(phenylsulfonyl)acetamides/propanamides as new SLC-0111 analogues: Synthesis and evaluation of the carbonic anhydrase inhibitory activities” (Eur J Med Chem, 2021).
Activity calls are given as the source filed them. The calls are words filed in the database; no cut-off is given here.

Key:
Carbonic anhydrase 9 = Carbonic anhydrase 9 (Homo sapiens, UniProt Q16790)
Description: Inhibition of recombinant human CA9 pre-incubated for 15 mins measured by phenol red dye based stopped flow CO2 hydration assay

Carbonic anhydrase 1 = Carbonic anhydrase 1 (Homo sapiens, UniProt P00915); experiment: Inhibition of recombinant human CA1 pre-incubated for 15 mins measured by phenol red dye based stopped flow CO2 hydration assay
Chain of Carbonic anhydrase 1 (P00915 whole entry): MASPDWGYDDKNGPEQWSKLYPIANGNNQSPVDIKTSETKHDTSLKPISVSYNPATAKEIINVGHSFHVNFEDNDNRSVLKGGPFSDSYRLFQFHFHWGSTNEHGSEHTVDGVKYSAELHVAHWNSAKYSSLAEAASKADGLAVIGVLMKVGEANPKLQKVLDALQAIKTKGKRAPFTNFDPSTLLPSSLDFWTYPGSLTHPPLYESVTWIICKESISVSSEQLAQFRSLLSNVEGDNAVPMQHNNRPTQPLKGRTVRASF

Carbonic anhydrase 12 = Carbonic anhydrase 12 (Homo sapiens, UniProt O43570); experiment: Inhibition of recombinant human CA12 pre-incubated for 15 mins measured by phenol red dye based stopped flow CO2 hydration assay
Chain of Carbonic anhydrase 12 (O43570 whole entry): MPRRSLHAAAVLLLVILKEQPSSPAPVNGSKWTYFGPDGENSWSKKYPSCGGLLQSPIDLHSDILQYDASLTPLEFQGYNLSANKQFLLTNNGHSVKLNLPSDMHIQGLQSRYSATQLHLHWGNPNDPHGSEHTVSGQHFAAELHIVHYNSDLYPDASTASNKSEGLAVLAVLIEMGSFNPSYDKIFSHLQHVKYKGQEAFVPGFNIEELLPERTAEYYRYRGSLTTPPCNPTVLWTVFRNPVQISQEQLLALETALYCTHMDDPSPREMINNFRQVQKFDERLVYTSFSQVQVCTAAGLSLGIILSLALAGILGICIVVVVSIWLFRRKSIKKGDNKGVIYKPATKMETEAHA

Carbonic anhydrase 2 = Carbonic anhydrase 2 (Homo sapiens, UniProt P00918)
Description: Inhibition of recombinant human CA2 pre-incubated for 15 mins measured by phenol red dye based stopped flow CO2 hydration assay

HCT-116 [1] = experiment: Antiproliferative activity against human HCT-116 cells after 48 hrs under hypoxic condition by MTT assay; type: functional, cell-based; conditions: HCT-116, 48 h
MCF7 = experiment: Antiproliferative activity against human MCF7 cells after 48 hrs under hypoxic condition by MTT assay; type: functional, cell-based; conditions: MCF7, 48 h
HCT-116 [2] = experiment: Induction of cell cycle arrest in human HCT116 cells assessed as cell accumulation at sub-G1 phase at IC50 concentration after 24 hrs by propidium iodide staining based flow cytometry analysis; type: functional
HCT-116 [3] = experiment: Induction of cell cycle arrest in human HCT116 cells assessed as cell accumulation at S phase at IC50 concentration after 24 hrs by propidium iodide staining based flow cytometry analysis; type: functional
HCT-116 [4] = experiment: Induction of apoptosis in human HCT116 cells assessed as early apoptotic cells after 24 hrs by Annexin-V-FITC/PI-staining based flow cytometry (reference value: 0.59%); type: functional
HCT-116 [5] = experiment: Induction of apoptosis in human HCT116 cells assessed as late apoptotic cells after 24 hrs by Annexin-V-FITC/PI-staining based flow cytometry (reference value: 0.22%); type: functional
HCT-116 [6] = experiment: Induction of apoptosis in human HCT116 cells assessed as necrotic cells after 24 hrs by Annexin-V-FITC/PI-staining based flow cytometry (reference value: 1.01%); type: functional

Structure (SMILES) | Ki (Carbonic anhydrase 9) [nM] | Ki (Carbonic anhydrase 1) [µM] | further results
CC(=O)c1ccc(NC(=O)CS(=O)(=O)c2ccc(C)cc2)cc1 | > 100000 | > 100 | Ki (Carbonic anhydrase 12): > 100 µM; Ki (Carbonic anhydrase 2): > 100 µM
NS(=O)(=O)c1ccc(NC(=O)CCS(=O)(=O)c2ccccc2)cc1 | 46.1 |  | 
O=C(CS(=O)(=O)c1ccccc1)Nc1ccc(C(=O)O)cc1 | 930 | > 100 | IC50 (HCT-116 [1]): 11600 nM; IC50 (MCF7): 5.29 µM
Cc1ccc(S(=O)(=O)CC(=O)Nc2ccc([N+](=O)[O-])cc2)cc1 | > 100000 | > 100 | Ki (Carbonic anhydrase 12): > 100 µM; Ki (Carbonic anhydrase 2): > 100 µM
CCOC(=O)c1ccc(NC(=O)CS(=O)(=O)c2ccccc2)cc1 | 17200 | > 100 | Ki (Carbonic anhydrase 2): > 100 µM
Cc1ccc(S(=O)(=O)CC(=O)Nc2ccc(C(=O)O)cc2)cc1 | 720 |  | IC50 (HCT-116 [1]): 2230 nM; IC50 (MCF7): 3.41 µM
CCOC(=O)c1ccc(NC(=O)CS(=O)(=O)c2ccc(C)cc2)cc1 | 29500 | > 100 | Ki (Carbonic anhydrase 12): > 100 µM

The next compounds have a lower Ki (Carbonic anhydrase 9) than those just listed; values first:

Ki (Carbonic anhydrase 9) [nM] | Ki (Carbonic anhydrase 1) [µM] | Structure (SMILES) | further results
29.8 |  | Cc1ccc(S(=O)(=O)C(C)C(=O)Nc2ccc(S(N)(=O)=O)cc2)cc1 (centres undefined) | 
15.9 |  | Cc1ccc(S(=O)(=O)CC(=O)Nc2ccc(S(N)(=O)=O)cc2)cc1 | 
6.5 |  | CC(C(=O)Nc1ccc(S(N)(=O)=O)cc1)S(=O)(=O)c1ccccc1 (centres undefined) | 
4.3 |  | Cc1ccc(S(=O)(=O)CCC(=O)Nc2ccc(S(N)(=O)=O)cc2)cc1 | IC50 (HCT-116 [1]): 570 nM; IC50 (MCF7): 0.67 µM; Activity (HCT-116 [2]): Active; Activity (HCT-116 [3]): Active; Activity (HCT-116 [4]): 0.91%; Activity (HCT-116 [5]): 21.45%; Activity (HCT-116 [6]): 9.63%
22.7 |  | NS(=O)(=O)c1ccc(NC(=O)CS(=O)(=O)c2ccccc2)cc1 | 
